The values below come from PMC7429951 (Journal of Medicinal Chemistry, 2020).

One series addresses ColH. Conditions: literature inhibitor; cited from earlier work.
A short description of series [1]: in vitro. Conditions: human, HepG2 cells (hepatocellular carcinoma).
The nature of series [2]: in vitro. The note with it: human, HEK293 cells (embryonal kidney).
Series [3] can be described thus: in vitro. The note with it: human, A549 cells (lung carcinoma).
In series [4] the target is peptidase domain of ColH (ColH-PD) (Hathewaya histolytica, UniProt Q46085). Briefly: biochemical. Details: species or system Clostridium histolyticum. Conditions: for inhibition at 1 µM: read-out: ColH-PD % inhibition @ 1 μM.
Sequence of peptidase domain of ColH (ColH-PD) (Q46085 331-721 limits assumed): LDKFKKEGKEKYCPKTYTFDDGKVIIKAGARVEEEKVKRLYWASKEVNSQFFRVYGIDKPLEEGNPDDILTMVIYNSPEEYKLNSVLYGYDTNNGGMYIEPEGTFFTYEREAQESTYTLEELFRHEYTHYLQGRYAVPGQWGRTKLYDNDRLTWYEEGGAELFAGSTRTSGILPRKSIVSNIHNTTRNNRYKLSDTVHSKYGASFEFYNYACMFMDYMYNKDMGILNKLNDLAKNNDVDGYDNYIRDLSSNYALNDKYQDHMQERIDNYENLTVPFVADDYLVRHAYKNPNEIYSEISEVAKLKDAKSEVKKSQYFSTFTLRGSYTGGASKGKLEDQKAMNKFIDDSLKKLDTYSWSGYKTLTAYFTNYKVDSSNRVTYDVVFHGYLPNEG
The target in series [5] is T1, LasB (Pseudomonas aeruginosa, UniProt Q02RJ6). Briefly: biochemical. The note with it: LasB IC50, FRET-based assay.
T1 sequence (Q02RJ6 198-498): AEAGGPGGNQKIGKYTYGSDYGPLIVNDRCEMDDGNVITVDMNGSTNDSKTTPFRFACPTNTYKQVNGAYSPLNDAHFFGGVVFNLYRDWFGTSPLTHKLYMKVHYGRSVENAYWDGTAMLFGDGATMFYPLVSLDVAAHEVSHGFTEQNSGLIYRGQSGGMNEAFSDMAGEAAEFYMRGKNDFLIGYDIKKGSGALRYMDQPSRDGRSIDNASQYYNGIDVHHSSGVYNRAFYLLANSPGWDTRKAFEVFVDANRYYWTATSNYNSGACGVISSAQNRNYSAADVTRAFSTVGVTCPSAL
Series [6] deals with T1, LasB.
The subject of series [7] is P. aeruginosa strain PA14. Description: Bacterial growth inhibition assay (MIC) P. aeruginosa. The format is cell-based, Pseudomonas aeruginosa.
Series [8] concerns the target collagenase unit of ColG (ColG-CU) (Hathewaya histolytica, UniProt Q9X721). Description: biochemical. Details: species or system C. histolyticum. The note with it: read-out: ColG-CU % inhibition @ 100 μM.
The target in series [9] is peptidase domain of ColT (ColT-PD) (Clostridium tetani, UniProt Q899Y1). Description: biochemical. More on the design: species or system C. tetani. The note with it: read-out: ColT-PD % inhibition @ 100 μM.
Sequence of peptidase domain of ColT (ColT-PD) (Q899Y1 340-731 limits assumed): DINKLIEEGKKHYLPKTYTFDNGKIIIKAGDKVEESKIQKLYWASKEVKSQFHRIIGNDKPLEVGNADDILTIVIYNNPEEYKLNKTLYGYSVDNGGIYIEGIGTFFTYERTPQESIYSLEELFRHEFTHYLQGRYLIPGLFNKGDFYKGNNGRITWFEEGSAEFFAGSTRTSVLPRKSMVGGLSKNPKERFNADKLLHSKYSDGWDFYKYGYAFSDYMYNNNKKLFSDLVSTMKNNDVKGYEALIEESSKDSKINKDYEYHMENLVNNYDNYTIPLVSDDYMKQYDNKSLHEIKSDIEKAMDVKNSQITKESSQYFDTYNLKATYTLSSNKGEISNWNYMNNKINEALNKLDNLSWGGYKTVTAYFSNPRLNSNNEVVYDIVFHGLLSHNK
For series [10], the target named is T2, collagenase unit of ColQ1 (ColQ1-CU) (Bacillus cereus, UniProt B9J3S4).
T2 construct: the collagenase unit of ColQ1 (ColQ1-CU) from B. cereus strain Q1
T2 sequence (B9J3S4 94-765 limits assumed): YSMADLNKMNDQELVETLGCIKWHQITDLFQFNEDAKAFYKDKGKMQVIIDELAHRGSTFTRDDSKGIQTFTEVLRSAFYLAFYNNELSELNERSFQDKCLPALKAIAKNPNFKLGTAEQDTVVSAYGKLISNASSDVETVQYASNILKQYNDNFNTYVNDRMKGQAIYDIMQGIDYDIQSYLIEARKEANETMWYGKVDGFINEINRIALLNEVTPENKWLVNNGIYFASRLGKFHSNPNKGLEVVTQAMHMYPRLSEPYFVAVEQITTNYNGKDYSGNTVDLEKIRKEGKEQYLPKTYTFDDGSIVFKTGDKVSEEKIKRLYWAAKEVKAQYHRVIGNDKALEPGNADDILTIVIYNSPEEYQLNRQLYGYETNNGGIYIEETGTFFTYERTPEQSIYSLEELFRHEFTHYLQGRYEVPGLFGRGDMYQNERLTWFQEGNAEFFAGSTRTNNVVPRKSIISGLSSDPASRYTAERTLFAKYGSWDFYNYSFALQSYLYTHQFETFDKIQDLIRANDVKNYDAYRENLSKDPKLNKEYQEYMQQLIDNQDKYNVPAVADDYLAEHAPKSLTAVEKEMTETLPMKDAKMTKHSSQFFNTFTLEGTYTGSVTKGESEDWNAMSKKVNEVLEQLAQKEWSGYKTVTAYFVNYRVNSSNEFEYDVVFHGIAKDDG
Description: biochemical. Details: species or system B. cereus strain Q1. Conditions: read-out: ColQ1-CU % inhibition @ 100 μM.

Where two headings read alike, the source gives them in different places.

Sequence of collagenase unit of ColG (ColG-CU) (Q9X721 111-786): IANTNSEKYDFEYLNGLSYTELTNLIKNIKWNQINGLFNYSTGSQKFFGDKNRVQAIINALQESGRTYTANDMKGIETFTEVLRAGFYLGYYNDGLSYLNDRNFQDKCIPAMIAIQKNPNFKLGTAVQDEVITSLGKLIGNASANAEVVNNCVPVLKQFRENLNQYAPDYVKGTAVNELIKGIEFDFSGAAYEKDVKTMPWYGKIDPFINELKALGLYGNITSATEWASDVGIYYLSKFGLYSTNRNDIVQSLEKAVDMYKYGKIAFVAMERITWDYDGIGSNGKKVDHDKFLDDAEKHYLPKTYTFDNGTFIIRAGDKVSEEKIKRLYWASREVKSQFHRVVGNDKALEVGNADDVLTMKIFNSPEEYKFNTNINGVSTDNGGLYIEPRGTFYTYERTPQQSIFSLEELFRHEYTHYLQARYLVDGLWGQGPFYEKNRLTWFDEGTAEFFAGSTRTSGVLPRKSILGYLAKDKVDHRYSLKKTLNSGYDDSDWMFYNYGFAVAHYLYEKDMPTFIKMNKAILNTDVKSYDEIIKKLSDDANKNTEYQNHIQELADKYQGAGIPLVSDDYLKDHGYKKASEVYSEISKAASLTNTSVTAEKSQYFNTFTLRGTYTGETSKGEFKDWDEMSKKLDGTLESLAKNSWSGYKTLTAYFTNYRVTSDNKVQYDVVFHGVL

`CC(C(=O)NO)N(Cc1ccccc1[N+](=O)[O-])S(=O)(=O)c1c(F)c(F)c(F)c(F)c1F` (centres unmarked) [Compound 3]: at ColH, the Ki is 0.005 µM.

Turning to `CC(NC(=O)C(Cc1ccccc1)NC(=O)NS(=O)(=O)c1ccc(F)cc1)C(=O)Nc1nnc(S)s1` (centres unmarked) [Compound 4], the Ki at ColH was 0.2 µM.

Consider `CC(=O)c1ccc(NC(=O)CS)cc1` [Compound 6, reference compound], for which the IC50 in the series “in vitro [1]” is above 100 µM; in the series “in vitro [2]”, 100 µM; in “in vitro [3]”, above 100 µM.

For `O=C1CC(S)C(=O)N1c1ccccc1` (centres unmarked) [Compound 7], in [4], the inhibition at 1 µM amounted to 8 ± 2%. Besides, 44.2 ± 2.3 µM corresponded to half-maximal inhibition against LasB [5] (IC50).

As to `Cc1ccc(N2C(=O)CC(S)C2=O)cc1` (centres unmarked) [Compound 8], in series [4], the inhibition at 1 µM was found to be 34%. The molecule further registered an IC50 against LasB [5] of 50.6 ± 1.6 µM.

Turning to `Cc1ccc(N2C(=O)CC(S)C2=O)cc1C` (centres unmarked) [Compound 9], the inhibition at 1 µM in series [4] was 7 ± 2%. Besides, the “difference in LasB activity between 9 and 22” value at LasB [6] (ratio of IC50 values, 9 more active) was 5 fold. For the same molecule, the IC50 on LasB [5] stood at 29.4 ± 0.9 µM.

In the case of `O=C1CC(S)C(=O)N1c1ccccc1Cl` (centres unmarked) [Compound 10], the inhibition at 1 µM in series [4] was determined as 8 ± 1%. At LasB [5], this molecule returned an IC50 of 8.5 ± 0.4 µM.

As to `O=C1CC(S)C(=O)N1c1cccc(Cl)c1` (centres unmarked) [Compound 11], the inhibition at 1 µM in series [4] worked out at 0%. Moreover, on LasB [5], the midpoint of inhibition, the IC50, lay at 8.1 ± 0.5 µM.

On to `O=C1CC(S)C(=O)N1c1ccc(Cl)cc1` (centres unmarked) [Compound 12], for which, in series [4], the inhibition at 1 µM amounted to 33%. At LasB [5], this molecule registered an IC50 of 16.5 ± 0.8 µM.

Take `O=C1CC(S)C(=O)N1c1c(Cl)cccc1Cl` (centres unmarked) [Compound 14]: in [4], the inhibition at 1 µM amounted to 8 ± 3%. The same molecule gave an IC50 against LasB [5] of 16 ± 3.7 µM.

As for `O=C1CC(S)C(=O)N1c1ccc(F)c(F)c1` (centres unmarked) [Compound 15], in [4], the inhibition at 1 µM was determined as 2 ± 2%. Also, the MIC in series [7] and in [7] (Pseudomonas aeruginosa) was above 100 µM in each case. The IC50 against LasB [5] amounted to 3.5 ± 0.2 µM.

For the molecule `Cc1ccc(Cl)cc1N1C(=O)CC(S)C1=O` (centres unmarked) [Compound 16], the inhibition at 1 µM in [4] was 6 ± 1%. On LasB [5], this molecule registered an IC50 of 15 ± 0.6 µM.

Turning to `Cc1ccc(Cl)c(C)c1N1C(=O)CC(S)C1=O` (centres unmarked) [Compound 17], the inhibition at 1 µM in series [4] was determined as 6 ± 5%. This molecule showed an IC50 on LasB [5] of 30.5 ± 5.4 µM.

Regarding `COc1ccccc1N1C(=O)CC(S)C1=O` (centres unmarked) [Compound 18], the inhibition at 1 µM in [4] stood at 0%. The molecule further returned an IC50 against LasB [5] of 28.9 ± 1.6 µM.

On to `COc1cccc(N2C(=O)CC(S)C2=O)c1` (centres unmarked) [Compound 19], for which the inhibition at 1 µM in [4] was -3 ± 9%. The midpoint of inhibition against LasB [5], the IC50, lay at 40.2 ± 1.4 µM.

For `COc1ccc(N2C(=O)CC(S)C2=O)cc1` (centres unmarked) [Compound 20], the IC50 in series [4] amounted to 0.32 ± 0.05 µM; on LasB [5], 112 ± 8.9 µM. Also, the inhibition at 1 µM in series [4] came out at 74%. For the same molecule, the inhibition at 100 µM in series [4] (read-out: ColH-PD % inhibition @ 100 μM) was 95 ± 1%; in series [8], 85 ± 3%; in series [9], 89 ± 4%; in series [10], 99 ± 1%.

For the molecule `COc1ccc(N2C(=O)CC(S)C2=O)c(OC)c1` (centres unmarked) [Compound 21], the inhibition at 1 µM in series [4] was found to be 2 ± 13%. At LasB [5], 45 ± 0.8 µM corresponded to half-maximal inhibition (IC50).

For the molecule `COc1ccc(N2C(=O)CC(S)C2=O)cc1OC` (centres unmarked) [Compound 22], in [4], the inhibition at 1 µM came out at 3 ± 11%. For the same molecule, on LasB [6] (ratio of IC50 values), the “loss in LasB activity compared to 13” value was determined as 47 fold. Half-maximal inhibition against LasB [5] (IC50) required 160 ± 10.1 µM.

`O=C1CC(S)C(=O)N1c1ccc(OC(F)(F)F)c(Cl)c1` (centres unmarked) [Compound 23]: in series [4], the inhibition at 1 µM turned out to be 18 ± 12%. On LasB [5], this molecule returned an IC50 of 55.2 ± 4.4 µM.

Turning to `O=C1CC(S)C(=O)N1c1cccc([N+](=O)[O-])c1` (centres unmarked) [Compound 24], the inhibition at 1 µM in series [4] turned out to be 4 ± 4%. Besides, it took 22.2 ± 0.4 µM to reach half-maximal inhibition on LasB [5] (IC50).

Regarding `O=C1CC(S)C(=O)N1c1cccc(-c2ccccc2)c1` (centres unmarked) [Compound 26], in series [4], the inhibition at 1 µM stood at 7 ± 4%. In addition, the “fold more active on LasB than compound 7” value on LasB [6] was 1.6 fold. On LasB [5], this molecule came in with an IC50 of 27.6 ± 4 µM.

As for `O=C1CC(S)C(=O)N1c1ccc(-c2ccccc2)cc1` (centres unmarked) [Compound 27], the inhibition at 1 µM in series [4] is 5 ± 2%. The molecule further had an IC50 against LasB [5] of 44.6 ± 1.1 µM.

Turning to `COc1ccc(N2C(=O)CC(SC(C)=O)C2=O)cc1` (centres unmarked) [Compound 28], in [4], the inhibition at 1 µM is 24 ± 2%. On LasB [5], this molecule yielded an IC50 above 200 µM.

Regarding `CC(=O)SC1CC(=O)N(c2ccc(Cl)c(Cl)c2)C1=O` (centres unmarked) [Compound 29], the inhibition at 1 µM in series [4] was -1 ± 7%. The molecule further had an IC50 at LasB [5] above 200 µM.

Regarding `CC(=O)SC1CC(=O)N(c2ccc(OC(F)(F)F)c(Cl)c2)C1=O` (centres unmarked) [Compound 30], the inhibition at 1 µM in series [4] was -11 ± 2%. At LasB [5], this molecule yielded an IC50 above 200 µM.

As for `CC(=O)SCC1CC(=O)N(c2ccccc2)C1=O` (centres unmarked) [Compound 40], the inhibition at 1 µM in [4] was -15 ± 5%. This molecule displayed an IC50 against LasB [5] above 200 µM.

As for `CC(=O)SCC1CC(=O)N(c2ccc(Cl)c(Cl)c2)C1=O` (centres unmarked) [Compound 41], in [4], the inhibition at 1 µM was -1 ± 2%. In addition, the IC50 against LasB [5] was above 200 µM.

On to `CC(=O)SCC1CC(=O)N(c2ccc(C(C)=O)cc2)C1=O` (centres unmarked) [Compound 42], for which, in series [4], the inhibition at 1 µM amounted to 2 ± 5%. Further, the IC50 at LasB [5] is above 200 µM.

As for `COc1ccc(N2C(=O)CC(CSC(C)=O)C2=O)cc1` (centres unmarked) [Compound 43], the inhibition at 1 µM in series [4] was 4 ± 6%. In addition, the IC50 at LasB [5] is above 200 µM.

`O=C1CC(CS)C(=O)N1c1ccc(Cl)c(Cl)c1` (centres unmarked) [Compound 50]: the inhibition at 1 µM in series [4] is 2 ± 3%. Also, the MIC in series [7] and in series [7] (Pseudomonas aeruginosa) was above 100 µM throughout. The same molecule gave an IC50 against LasB [5] of 5.4 ± 0.7 µM.

In the case of `O=C1CC(CS)C(=O)N1c1ccc(F)c(F)c1` (centres unmarked) [Compound 51], the inhibition at 1 µM in [4] worked out at 2 ± 1%. Also, the MIC in series [7] and in series [7] (Pseudomonas aeruginosa) was above 100 µM each time. On LasB [5], this molecule came in with an IC50 of 10.1 ± 1.4 µM.

Consider `CC(=O)c1ccc(N2C(=O)CC(CS)C2=O)cc1` (centres unmarked) [Compound 52], for which the inhibition at 1 µM in series [4] worked out at 8 ± 3%. Besides, the IC50 against LasB [5] was above 200 µM.
